Entries after “also recorded” stand apart in the source; their conditions may differ.
Key:
[1] = system: UPR proteins (BIP, PERK, phosphorylated eIF2α, calnexin); test: UPR protein immunoblot; type: cell-based, Human; conditions: ANBL6.BR (1 μM) and MM.1S (WL40 200 nM, RA190 300 nM)
MM.1S CRBN KO cells = test: MM.1S CRBN KO cell viability; type: cell-based, Human
Text: FIGS. […] Wst-1 assay was used to test cell viability.
The experiment was repeated twice and JQRA concentration was increased (as indicated) at the second time.

MM.1S cells [2] = test: MM.1S cell viability (WST); conditions: for combination effect on viability (isobologram, CI): 48 hours, WST
Protocol: (§2) FIGS. 4A and 4B show multiple myeloma 1S (MM.1S) cells treated with RA190, WL40, and WL44 at the indicated concentrations for 24 hours. Wst-1 assay was used to test cell viability.
(§3) In FIG. 13B, multiple myeloma cells (MM.1S) were treated with RA190 or compound JQRA at the indicated concentrations for 72 hours, and the percentage of viable cells was measured.
(§4) Purified CD138^+ patient MM cells, which were treated with DMSO control or WL40 at indicated concentrations for 48 hours, followed by assessment for cell viability using CellTiter-Glo assay (mean±SD of triplicate cultures; p<0.001). […] Normal PBMCs from healthy donors were treated with DMSO control or WL40 at indicated concentrations for 48 hours, and then analyzed for cell viability using CellTiter-Glo assay (mean±SD of quadruplicate cultures). […] MM.1S cells were cultured with or without patient BMSCs in the presence or absence of WL40 for 48 hours, and cell proliferation was measured by WST assay (mean±SD; n=3; p<0.0001). […] MM.1S cells were cultured with or without patient pDCs in the presence or absence of WL40 for 48 hours, and cell proliferation was measured by WST assay (mean±SD; n=3; p<0.0001).

human MM.1S MM tumors = test: Human MM xenograft model; type: in vivo; conditions: for host survival / tumor growth: MM.1S-bearing mice, i.p., WL40 14.7 μM/kg, RA190 26.8 μM/kg; for host survival: twice weekly; for tumor growth: twice weekly for 18 days
Protocol: FIG. 23B are Kaplan-Meier plots which show survival of mice. […] The lysates were subjected to the immunoblot analysis using anti-polyubiquitin, anti-cleaved-caspase-8, or anti-β-actin Abs. FIG. 23D show tumor sections from the vehicle control, and WL40-treated mice that were stained with anti-polyubiquitin, Ki67, caspase-3 (cleaved form), and CD31 antibodies. Scale bar, 10 μm.
Animal model studies were performed as described previously.^32, 33, 36 Briefly, CB17 SCID mice were subcutaneously inoculated with 5.0×10^6 MM.1S cells. When tumors were measurable (100 mm^3) at approximately 3 weeks after MM-cell injection, mice (10 mice/group) were treated on a twice-weekly schedule with vehicle alone, WL40, or RA190. Mice were euthanized when tumor volume reached institutional limit (2000 mm^3). All animal experiments protocols were approved by and conformed to the relevant regulatory standards of the Institutional Animal Care and Use Committee at the Dana-Farber Cancer Institute.
Tumors were harvested from WL40-treated and control animals. Tumor sections were fixed and paraffin embedded for immunostaining to detect growth inhibition (Ki67), apoptosis (cleaved caspase-3), poly-ubiquitination (PolyU), and angiogenesis (CD31), as described previously.^32, 34 Tumor protein lysates from control vehicle- and WL40-treated mice were analyzed for caspase-8, poly-Ubiquitin or β-actin level using immunoblot analyses.
To fully understand the therapeutic potential of the RPN13 degrader, the in vivo efficacy of WL40 was evaluated using the human plasmacytoma xenograft mouse model.^3, 34 This model has been useful in validating novel anti-MM therapies bortezomib, carfilzomib, ixazomib, lenalidomide, and pomalidomide, which have translated to clinical trials and FDA approval.

[3] = system: multiple myeloma cell lines; test: Viability of a panel of multiple myeloma cell lines; type: cell-based, Human
Text: FIGS. […] Wst-1 assay was used to test cell viability. FIGS. 6A and 6B show the effect of exemplary bifunctional compounds WL40 and WL44 on multiple myeloma cell lines.

[4] = target: Recombinant 20S proteasome (Homo sapiens, UniProt P28072+P28074+Q99436); test: Recombinant 20S proteasome activity assay; type: biochemical; conditions: purified recombinant 20S proteasome; 30 minutes
Protocol: MM.1S cells, which were treated with DMSO control, bortezomib, or WL40 at indicated concentration for 3 hours; protein lysates were analyzed for different proteasome activities (CT-L, chymotrypsin-like; T-L, trypsin-like; C-L, caspase-like). FIG. 20B is a bar graph showing percent proteasome activity after normalization with DMSO control (mean±SD; n=3). Recombinant 20S proteasome was incubated with DMSO, bortezomib, or WL40 for 30 minutes, followed by assessment of the above-noted proteasome activities. FIG. 20C MM.1S cells were pretreated with exemplary proteasome inhibitor MG132 (10 μM) for 1 hour, followed by addition of WL40 (400 nM) for 8 hours. […] Total protein lysates were subjected to immunoblots for Rpn13 and α-tubulin. […] FIG. 20E ANBL6.BR cells were treated with WL40 (400 nM) or RA190 (500 nM) for 16 hours; protein lysates were subjected to immunoblot analysis using anti-Rpn13 or anti-β-actin Abs.
To eliminate the potential impact of WL40 on proteasome function, the effect of WL40 on proteasome activities was assessed.

LC3A/B = test: Autophagy marker LC3A/B immunoblot; type: cell-based, Human; conditions: ANBL6.BR or MM.1S; versus DMSO or RA190
MM.1S cells [5] = conditions: human, 48 h
Protocol: as §2, §3, §4

[6] = system: MM.1S cells co-cultured with patient pDCs; test: MM.1S co-culture with patient pDCs (WST); type: cell-based, Human; conditions: 48 hours
Text: (§1) The IC50 of WL40 for cell lines is shown.

INA6 MM cells = test: INA6 cell viability; type: cell-based, Human; conditions: IL-6-dependent INA6; 48 hours
Text: as §1

With `Cl.N[C@@H](Cc1ccccc1)C(=O)N1C/C(=C/c2ccc(Cl)c(Cl)c2)C(=O)/C(=C\c2ccc(Cl)c(Cl)c2)C1` [RA190, reference compound] the “induction of UPR signaling” value [1] was “delayed kinetics and to a lesser extent than Rpn13 degrader WL40”, the “cytotoxicity (percentage of viable cells)” value (MM.1S CRBN KO cells; CRBN-KO cells, 72 hours) was “more robust MM cytotoxicity” and the “cytotoxicity (percentage of viable cells)” value (MM.1S cells [2]; 72 hours) was “stronger MM cytotoxicity compared to exemplary compound JQRA; also recorded: more robust MM cytotoxicity”. The host survival (human MM.1S MM tumors) was “extends mice survival”, the tumor growth (human MM.1S MM tumors) was “attenuates MM tumor progression” and the “cytotoxicity (percentage of viable cells)” value ([3]; different multiple myeloma cell lines, 72 hours) was “stronger cytotoxicity than JQRA”.
For `O=C1CCC(N2C(=O)c3cccc(NCCOCCOCCOCCC(=O)N[C@@H](Cc4ccccc4)C(=O)N4C/C(=C\c5ccc(Cl)c(Cl)c5)C(=O)/C(=C/c5ccc(Cl)c(Cl)c5)C4)c3C2=O)C(=O)N1` (some centres unmarked) [WL40], the “20S proteasomal activities (chymotrypsin-like, trypsin-like, caspase-like)” value [4] was “does not inhibit 20S proteasomal activities”, the “LC3A/B level / LC3 activation” value (LC3A/B) was “significant increase in LC3A/B; also recorded: more pronounced LC3 activation” and the “induction of UPR signaling” value [1] was “rapid and robust induction of UPR proteins”. The cell viability (MM.1S CRBN KO cells; MM.1S-CRBN KO, 24 hours, Wst-1) was “decrease cell viability”, the “cytotoxicity (cell viability)” value (MM.1S cells [5]) was “more cytotoxic than the parental Rpn13 inhibitor RA190” and the “viability of MM cells in co-culture” value [6] was “dose-dependent decrease in the viability of MM cells”. The “cell viability IC50” value (MM.1S cells [2]; 24 hours, Wst-1) was “lower IC50 compared to compound RA190”, the “combination effect on viability (isobologram, CI)” value (MM.1S cells [2]; WL40 plus bortezomib) was “synergistic anti-MM activity” and the “combination effect on viability (isobologram, CI)” value (MM.1S cells [2]; WL40 plus lenalidomide) was “synergistic anti-MM activity”. The “combination effect on viability (isobologram, CI)” value (MM.1S cells [2]; WL40 plus pomalidomide) was “synergistic anti-MM activity”, the “cytotoxic activity (cell viability)” value (INA6 MM cells) was “cytotoxic activity” and the host survival (human MM.1S MM tumors) was “prolongs host survival”. For the same compound, the tumor growth (human MM.1S MM tumors) was “inhibits xenografted human MM cell growth; also recorded: more potent in vivo anti-MM activity”, the tolerability (human MM.1S MM tumors; WL40-treated mice) was “well tolerated” and the body weight loss (human MM.1S MM tumors; WL40-treated mice (data not shown)) was “no significant weight loss”. The “PolyUb proteins in harvested tumors” value (human MM.1S MM tumors; relative to tumors from control mice) was “increased accumulation of PolyUb proteins”, the “angiogenesis in harvested tumors (CD31)” value (human MM.1S MM tumors; tumor sections) was “blocks angiogenesis” and the “apoptosis in harvested tumors (cleaved caspase-3)” value (human MM.1S MM tumors; tumor sections) was “induces apoptosis”. The “proliferation in harvested tumors (Ki67)” value (human MM.1S MM tumors; tumor sections) was “decreases proliferation” and the “cell viability IC50” value ([3]; multiple myeloma cell lines, 48 hours, Wst-1) was “high IC50 in several cell lines”.

— US11702402B2, “Small molecules that block proteasome-associated ubiquitin receptor RPN13 function and uses thereof” (DANA-FARBER CANCER INSTITUTE, INC., priority 2018, dated 2023)
